# Results published in PMC4890880 (ACS infectious diseases, 2016).
# System: HepG2-A16-CD81EGFP cells
# Experiment: not given
# Details: human, 50 uM
SMILES,HepG2 Tox% @ 50 uM rep1,HepG2 Tox% @ 50 uM rep2
CCOc1cc2c(cc1OCC)C(c1cc(Cl)c(O)c(OCC)c1)NCC2 (centres unmarked) [MMV000481],20%,
CCN(CC)c1cc(C)c2cc(NC(=O)c3cccc(OC)c3)ccc2n1 [MMV000498],100%,101%
CCc1ccc(Nc2cc(C)c3ccc(O)cc3n2)cc1 [MMV000570],,100%
COc1ccc(Nc2nc(NCc3ccccc3)c3ccccc3n2)cc1 [MMV000963],,100%
CCOc1cccc2sc(N(Cc3cccnc3)C(=O)C3CCCCC3)nc12 [MMV001230],,99%
COc1ccc(CCNC(=O)c2cc(S(=O)(=O)N3CC(C)CC(C)C3)ccc2Sc2ccc(F)cc2)cc1OC (centres unmarked) [MMV007557],-12%,
COc1ccc2nc(C)cc(Nc3ccc(Cl)cc3)c2c1 [MMV007875],,99%
OC(CNC1CCCCC1)Cn1c2ccccc2c2ccccc21 (centres unmarked) [MMV009063],,101%
COc1cccc(Nc2nc(NCCO)c3ccccc3n2)c1 [MMV011944],100%,101%
COCCNCC(O)Cn1c2ccc(Cl)cc2c2cc(Cl)ccc21 (centres unmarked) [MMV019017],,99%
Cn1c(=O)c2cc(C(=O)NCCCN3CCCCCC3)sc2c2ccccc21 [MMV019313],100%,
CCN1CCN(Cc2ccc(NC(=O)c3cc4ccc5cccnc5c4[nH]3)cc2)CC1 [MMV020548],,100%
O=C(Nc1ccc(CN2CCOCC2)cc1)c1ccc(-c2cc(Cl)ccc2Cl)o1 [MMV020651],,96%
CCC(=O)Nc1nnc(Cc2ccc(OC)c(OC)c2)s1 [MMV020942],-26%,
CN(C)c1ccc(N=Cc2ccc(N3CCOCC3)cc2)cc1 [MMV073843],-8%,
CCOc1ccc(-n2cc(-c3ccccc3)c3c(SCc4cc(C)ccc4C)ncnc32)cc1 [MMV085471],-12%,
O=C(NC1CCN(Cc2ccccc2)CC1)c1cc2nc(-c3ccc(Cl)s3)cc(C(F)(F)F)n2n1 [MMV396635],-30%,
CC1(c2ccccc2)Nc2ccccc2-c2nc3ccccc3n21 (centres unmarked) [MMV396715],,102%

# System: Plasmodium berghei (Pb-Luc) exoerythrocytic-stage parasites
# Experiment: microbe, parasite or virus in culture
# Details: read-out: Inhibition% @ 50 uM rep1
row,SMILES,inhibition at 50 µM
1,CCOc1cc2c(cc1OCC)C(c1cc(Cl)c(O)c(OCC)c1)NCC2 (centres unmarked) [MMV000481],73%
2,CCN(CC)c1cc(C)c2cc(NC(=O)c3cccc(OC)c3)ccc2n1 [MMV000498],104%
3,CCc1ccc(Nc2cc(C)c3ccc(O)cc3n2)cc1 [MMV000570],103%
4,COc1ccc(Nc2nc(NCc3ccccc3)c3ccccc3n2)cc1 [MMV000963],103%
5,CCOc1cccc2sc(N(Cc3cccnc3)C(=O)C3CCCCC3)nc12 [MMV001230],102%
6,COc1ccc(CCNC(=O)c2cc(S(=O)(=O)N3CC(C)CC(C)C3)ccc2Sc2ccc(F)cc2)cc1OC (centres unmarked) [MMV007557],19%
7,COc1ccc2nc(C)cc(Nc3ccc(Cl)cc3)c2c1 [MMV007875],99%
8,OC(CNC1CCCCC1)Cn1c2ccccc2c2ccccc21 (centres unmarked) [MMV009063],104%
9,CC1CCN(Cc2c(O)ccc3cc(-c4nc5ccccc5s4)c(=O)oc23)CC1 [MMV009127],75%
10,COc1cccc(Nc2nc(NCCO)c3ccccc3n2)c1 [MMV011944],103%
11,COCCNCC(O)Cn1c2ccc(Cl)cc2c2cc(Cl)ccc21 (centres unmarked) [MMV019017],103%
12,COc1cccc(Nc2nc(N)c3ccccc3n2)c1 [MMV019199],98%
13,Cn1c(=O)c2cc(C(=O)NCCCN3CCCCCC3)sc2c2ccccc21 [MMV019313],104%
14,COc1ccc(-c2cn3c(C(=O)Nc4ccccc4Cl)c(-c4ccccc4)c4c3n2CCCC4)cc1 [MMV020403],102%
15,CCN1CCN(Cc2ccc(NC(=O)c3cc4ccc5cccnc5c4[nH]3)cc2)CC1 [MMV020548],102%
16,O=C(Nc1ccc(CN2CCOCC2)cc1)c1ccc(-c2cc(Cl)ccc2Cl)o1 [MMV020651],100%
17,CCC(=O)Nc1nnc(Cc2ccc(OC)c(OC)c2)s1 [MMV020942],-19%
18,CN(C)c1ccc(N=Cc2ccc(N3CCOCC3)cc2)cc1 [MMV073843],88%
19,Nc1nc(Nc2cccc(F)c2)nc2ccccc12 [MMV080034],102%
20,CCOc1ccc(-n2cc(-c3ccccc3)c3c(SCc4cc(C)ccc4C)ncnc32)cc1 [MMV085471],11%
21,O=C(NC1CCN(Cc2ccccc2)CC1)c1cc2nc(-c3ccc(Cl)s3)cc(C(F)(F)F)n2n1 [MMV396635],7.6%
22,Cc1cc(N2CCCC2)nc(Nc2ccc(NC(=O)CCc3ccccc3)cc2)n1 [MMV396669],103%
23,CC1(c2ccccc2)Nc2ccccc2-c2nc3ccccc3n21 (centres unmarked) [MMV396715],104%
24,N=c1n(CCN2CCCCC2)c2ccccc2n1CC(=O)c1ccc(Cl)c(Cl)c1 [MMV396723],101%
25,Nc1ccn([C@@H]2O[C@H](CO)[C@@H](O)[C@H]2O)c(=O)n1 [MMV638723],30%
26,CCN(CC)CCCNc1ccnc2cc3ccccc3cc12 [MMV665783],90%

# Same assay, conditions: read-out: Inhibition% @ 50 uM rep2
row,SMILES,inhibition at 50 µM
1,CCOc1cc2c(cc1OCC)C(c1cc(Cl)c(O)c(OCC)c1)NCC2 (centres unmarked) [MMV000481],75%
2,CCN(CC)c1cc(C)c2cc(NC(=O)c3cccc(OC)c3)ccc2n1 [MMV000498],106%
3,CCc1ccc(Nc2cc(C)c3ccc(O)cc3n2)cc1 [MMV000570],105%
4,COc1ccc(Nc2nc(NCc3ccccc3)c3ccccc3n2)cc1 [MMV000963],106%
5,CCOc1cccc2sc(N(Cc3cccnc3)C(=O)C3CCCCC3)nc12 [MMV001230],103%
6,COc1ccc(CCNC(=O)c2cc(S(=O)(=O)N3CC(C)CC(C)C3)ccc2Sc2ccc(F)cc2)cc1OC (centres unmarked) [MMV007557],15%
7,COc1ccc2nc(C)cc(Nc3ccc(Cl)cc3)c2c1 [MMV007875],101%
8,OC(CNC1CCCCC1)Cn1c2ccccc2c2ccccc21 (centres unmarked) [MMV009063],105%
9,CC1CCN(Cc2c(O)ccc3cc(-c4nc5ccccc5s4)c(=O)oc23)CC1 [MMV009127],76%
10,COc1cccc(Nc2nc(NCCO)c3ccccc3n2)c1 [MMV011944],106%
11,COCCNCC(O)Cn1c2ccc(Cl)cc2c2cc(Cl)ccc21 (centres unmarked) [MMV019017],102%
12,COc1cccc(Nc2nc(N)c3ccccc3n2)c1 [MMV019199],99%
13,Cn1c(=O)c2cc(C(=O)NCCCN3CCCCCC3)sc2c2ccccc21 [MMV019313],106%
14,COc1ccc(-c2cn3c(C(=O)Nc4ccccc4Cl)c(-c4ccccc4)c4c3n2CCCC4)cc1 [MMV020403],103%
15,CCN1CCN(Cc2ccc(NC(=O)c3cc4ccc5cccnc5c4[nH]3)cc2)CC1 [MMV020548],106%
16,O=C(Nc1ccc(CN2CCOCC2)cc1)c1ccc(-c2cc(Cl)ccc2Cl)o1 [MMV020651],99%
17,CCC(=O)Nc1nnc(Cc2ccc(OC)c(OC)c2)s1 [MMV020942],-37%
18,CN(C)c1ccc(N=Cc2ccc(N3CCOCC3)cc2)cc1 [MMV073843],83%
19,Nc1nc(Nc2cccc(F)c2)nc2ccccc12 [MMV080034],103%
20,CCOc1ccc(-n2cc(-c3ccccc3)c3c(SCc4cc(C)ccc4C)ncnc32)cc1 [MMV085471],-7%
21,O=C(NC1CCN(Cc2ccccc2)CC1)c1cc2nc(-c3ccc(Cl)s3)cc(C(F)(F)F)n2n1 [MMV396635],24%
22,Cc1cc(N2CCCC2)nc(Nc2ccc(NC(=O)CCc3ccccc3)cc2)n1 [MMV396669],103%
23,CC1(c2ccccc2)Nc2ccccc2-c2nc3ccccc3n21 (centres unmarked) [MMV396715],106%
24,N=c1n(CCN2CCCCC2)c2ccccc2n1CC(=O)c1ccc(Cl)c(Cl)c1 [MMV396723],102%
25,Nc1ccn([C@@H]2O[C@H](CO)[C@@H](O)[C@H]2O)c(=O)n1 [MMV638723],19%
26,CCN(CC)CCCNc1ccnc2cc3ccccc3cc12 [MMV665783],95%

# System: HepG2-A16-CD81EGFP cells
# Experiment: cells
# Details: Homo sapiens, HepG2, read-out: % inhibition
row,SMILES,inhibition at 50 µM
1,CCOc1cc2c(cc1OCC)C(c1cc(Cl)c(O)c(OCC)c1)NCC2 (centres unmarked) [MMV000481],20.4%
2,CCN(CC)c1cc(C)c2cc(NC(=O)c3cccc(OC)c3)ccc2n1 [MMV000498],99.5%
3,CCc1ccc(Nc2cc(C)c3ccc(O)cc3n2)cc1 [MMV000570],98.1%
4,COc1ccc(Nc2nc(NCc3ccccc3)c3ccccc3n2)cc1 [MMV000963],99.3%
5,CCOc1cccc2sc(N(Cc3cccnc3)C(=O)C3CCCCC3)nc12 [MMV001230],97.3%
6,COc1ccc(CCNC(=O)c2cc(S(=O)(=O)N3CC(C)CC(C)C3)ccc2Sc2ccc(F)cc2)cc1OC (centres unmarked) [MMV007557],-11.7%
7,COc1ccc2nc(C)cc(Nc3ccc(Cl)cc3)c2c1 [MMV007875],94.8%
8,OC(CNC1CCCCC1)Cn1c2ccccc2c2ccccc21 (centres unmarked) [MMV009063],98.6%
9,CC1CCN(Cc2c(O)ccc3cc(-c4nc5ccccc5s4)c(=O)oc23)CC1 [MMV009127],-10.1%
10,COc1cccc(Nc2nc(NCCO)c3ccccc3n2)c1 [MMV011944],99.7%
11,COCCNCC(O)Cn1c2ccc(Cl)cc2c2cc(Cl)ccc21 (centres unmarked) [MMV019017],96.7%
12,COc1cccc(Nc2nc(N)c3ccccc3n2)c1 [MMV019199],88.3%
13,Cn1c(=O)c2cc(C(=O)NCCCN3CCCCCC3)sc2c2ccccc21 [MMV019313],99.9%
14,COc1ccc(-c2cn3c(C(=O)Nc4ccccc4Cl)c(-c4ccccc4)c4c3n2CCCC4)cc1 [MMV020403],52.5%
15,CCN1CCN(Cc2ccc(NC(=O)c3cc4ccc5cccnc5c4[nH]3)cc2)CC1 [MMV020548],98.4%
16,O=C(Nc1ccc(CN2CCOCC2)cc1)c1ccc(-c2cc(Cl)ccc2Cl)o1 [MMV020651],93.9%
17,CCC(=O)Nc1nnc(Cc2ccc(OC)c(OC)c2)s1 [MMV020942],-25.5%
18,CN(C)c1ccc(N=Cc2ccc(N3CCOCC3)cc2)cc1 [MMV073843],-8.32%
19,Nc1nc(Nc2cccc(F)c2)nc2ccccc12 [MMV080034],81.8%
20,CCOc1ccc(-n2cc(-c3ccccc3)c3c(SCc4cc(C)ccc4C)ncnc32)cc1 [MMV085471],-12.2%
21,O=C(NC1CCN(Cc2ccccc2)CC1)c1cc2nc(-c3ccc(Cl)s3)cc(C(F)(F)F)n2n1 [MMV396635],-29.6%
22,Cc1cc(N2CCCC2)nc(Nc2ccc(NC(=O)CCc3ccccc3)cc2)n1 [MMV396669],96.9%
23,CC1(c2ccccc2)Nc2ccccc2-c2nc3ccccc3n21 (centres unmarked) [MMV396715],98.6%
24,N=c1n(CCN2CCCCC2)c2ccccc2n1CC(=O)c1ccc(Cl)c(Cl)c1 [MMV396723],96.7%
25,Nc1ccn([C@@H]2O[C@H](CO)[C@@H](O)[C@H]2O)c(=O)n1 [MMV638723],3.04%
26,CCN(CC)CCCNc1ccnc2cc3ccccc3cc12 [MMV665783],31.7%
